Test system: PDC KRAS tumor spheroids with HUVEC/MSC, viability
Experiment: Anticancer human tumor 349418-098-R-PDC patient-derived lung adenocarcinoma cell line growth inhibition [KRAS2]
Conditions: for IC50: curve of first compound; for viability, T/C: stronger effect = lower value
Procedure, shortened: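 KRAS-mutant tumor cells were grown as spheroids with HUVEC endothelial cells and human MSCs as stroma. Targeted agents were tested alone and with KRAS pathway inhibitors. Doses started at or near clinical Cmax, or 10 microM, descending half-log.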

[1] = second compound 0.1 µM, first compound 0.0316 µM
[2] = second compound 0.1 µM, first compound 0.1 µM
[3] = second compound 0.1 µM, first compound 0.316 µM
[4] = second compound 0.1 µM, first compound 1 µM
[5] = second compound 0.1 µM, first compound 3.16 µM
[6] = second compound 0.1 µM, first compound 10 µM
[7] = second compound 0.316 µM, first compound 0.0316 µM
[8] = second compound 0.316 µM, first compound 0.1 µM
[9] = second compound 0.316 µM, first compound 0.316 µM
[10] = second compound 0.316 µM, first compound 1 µM
[11] = second compound 0.316 µM, first compound 3.16 µM
[12] = second compound 0.316 µM, first compound 10 µM
[13] = second compound 1 µM, first compound 0.0316 µM
[14] = second compound 1 µM, first compound 0.1 µM
[15] = second compound 1 µM, first compound 0.316 µM
[16] = second compound 1 µM, first compound 1 µM
[17] = second compound 1 µM, first compound 3.16 µM
[18] = second compound 1 µM, first compound 10 µM
[19] = second compound 3.16 µM, first compound 0.0316 µM
[20] = second compound 3.16 µM, first compound 0.1 µM
[21] = second compound 3.16 µM, first compound 0.316 µM
[22] = second compound 3.16 µM, first compound 1 µM
[23] = second compound 3.16 µM, first compound 3.16 µM
[24] = second compound 3.16 µM, first compound 10 µM
[25] = second compound 10 µM, first compound 0.0316 µM
[26] = second compound 10 µM, first compound 0.1 µM
[27] = second compound 10 µM, first compound 0.316 µM
[28] = second compound 10 µM, first compound 1 µM
[29] = second compound 10 µM, first compound 3.16 µM
[30] = second compound 10 µM, first compound 10 µM
[31] = second compound 0.1 µM, first compound 0.00316 µM
[32] = second compound 0.1 µM, first compound 0.01 µM
[33] = second compound 0.316 µM, first compound 0.00316 µM
[34] = second compound 0.316 µM, first compound 0.01 µM
[35] = second compound 1 µM, first compound 0.00316 µM
[36] = second compound 1 µM, first compound 0.01 µM
[37] = second compound 3.16 µM, first compound 0.00316 µM
[38] = second compound 3.16 µM, first compound 0.01 µM
[39] = second compound 10 µM, first compound 0.00316 µM
[40] = second compound 10 µM, first compound 0.01 µM
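Also: spheroids exposed to compounds for seven days before readout.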

Work on `CC(C)NCC(C(=O)N1CCN(c2ncnc3c2C(C)CC3O)CC1)c1ccc(Cl)cc1` (stereo not given) + CC1OCC2(CCN(c3cnc(Sc4ccnc(N)c4Cl)c(N)n3)CC2)C1N yielded an IC50 (second compound 0.1 µM) of 270 nM, an IC50 (second compound 0.316 µM) of 271 nM and an IC50 (second compound 1 µM) of 472 nM. It also gave an IC50 (second compound 3.16 µM) of 358 nM, an IC50 (second compound 10 µM) of 401 nM and a viability, T/C [1] of 98.9%. The viability, T/C [2] was 78.6%, the viability, T/C [3] was 42.5% and the viability, T/C [4] was 25.8%. The viability, T/C [5] was 13.9%, the viability, T/C [6] was 7.23% and the viability, T/C [7] was 100%. The viability, T/C [8] was 77.7%, the viability, T/C [9] was 43% and the viability, T/C [10] was 25.9%. The viability, T/C [11] was 14.5%, the viability, T/C [12] was 6.51% and the viability, T/C [13] was 98.2%. For the same compound, the viability, T/C [14] was 85.1%, the viability, T/C [15] was 61.7% and the viability, T/C [16] was 28.7%. It also gave a viability, T/C [17] of 17.4%, a viability, T/C [18] of 7.82% and a viability, T/C [19] of 92.8%. For the same compound, the viability, T/C [20] was 80.4%, the viability, T/C [21] was 51.8% and the viability, T/C [22] was 26.4%. For the same compound, the viability, T/C [23] was 19.8%, the viability, T/C [24] was 7.52% and the viability, T/C [25] was 87.1%. It also gave a viability, T/C [26] of 83.6%, a viability, T/C [27] of 51.5% and a viability, T/C [28] of 31%. For the same compound, the viability, T/C [29] was 15.3% and the viability, T/C [30] was 7.92%.

`CC1(C)CCC(CN2CCN(c3ccc(C(=O)NS(=O)(=O)c4ccc(NCC5CCOCC5)c([N+](=O)[O-])c4)c(Oc4cnc5[nH]ccc5c4)c3)CC2)=C(c2ccc(Cl)cc2)C1` + CC1OCC2(CCN(c3cnc(Sc4ccnc(N)c4Cl)c(N)n3)CC2)C1N was tested, and the IC50 (second compound 0.1 µM) was 1800 nM, the IC50 (second compound 0.316 µM) was 1730 nM and the IC50 (second compound 1 µM) was 1780 nM. It also gave an IC50 (second compound 3.16 µM) of 1580 nM, an IC50 (second compound 10 µM) of 1250 nM and a viability, T/C [1] of 105%. For the same compound, the viability, T/C [2] was 97.1%, the viability, T/C [3] was 91.4% and the viability, T/C [4] was 89.1%. The viability, T/C [5] was 12.3%, the viability, T/C [6] was 3.59% and the viability, T/C [7] was 95.4%. For the same compound, the viability, T/C [8] was 94.4%, the viability, T/C [9] was 89.6% and the viability, T/C [10] was 84.5%. It also gave a viability, T/C [11] of 12.2%, a viability, T/C [12] of 3.15% and a viability, T/C [13] of 94.9%. For the same compound, the viability, T/C [14] was 97.9%, the viability, T/C [15] was 88.2% and the viability, T/C [16] was 87.1%. The viability, T/C [17] was 13.3%, the viability, T/C [18] was 3.05% and the viability, T/C [19] was 87.4%. For the same compound, the viability, T/C [20] was 85.5%, the viability, T/C [21] was 77.9% and the viability, T/C [22] was 71.8%. For the same compound, the viability, T/C [23] was 17.7%, the viability, T/C [24] was 2% and the viability, T/C [25] was 76%. The viability, T/C [26] was 82.1%, the viability, T/C [27] was 63.2% and the viability, T/C [28] was 60.8%. For the same compound, the viability, T/C [29] was 15.6% and the viability, T/C [30] was 0.69%.

`CCN1CCN(Cc2ccc(Nc3ncc(F)c(-c4cc(F)c5nc(C)n(C(C)C)c5c4)n3)nc2)CC1` + CC1OCC2(CCN(c3cnc(Sc4ccnc(N)c4Cl)c(N)n3)CC2)C1N was tested, and the IC50 (second compound 0.1 µM) was 5.38 nM, the IC50 (second compound 0.316 µM) was 3.38 nM and the IC50 (second compound 1 µM) was 7.27 nM. The IC50 (second compound 3.16 µM) was 7.9 nM, the IC50 (second compound 10 µM) was 6.16 nM and the viability, T/C [31] was 66.4%. For the same compound, the viability, T/C [32] was 28.3%, the viability, T/C [1] was 21.4% and the viability, T/C [2] was 14.6%. It also gave a viability, T/C [3] of 13.6%, a viability, T/C [4] of 4.93% and a viability, T/C [33] of 50.9%. It also gave a viability, T/C [34] of 37.3%, a viability, T/C [7] of 18.1% and a viability, T/C [8] of 23.4%. It also gave a viability, T/C [9] of 10.2%, a viability, T/C [10] of 6.35% and a viability, T/C [35] of 70.2%. The viability, T/C [36] was 43.6%, the viability, T/C [13] was 21.1% and the viability, T/C [14] was 16.4%. It also gave a viability, T/C [15] of 10.7%, a viability, T/C [16] of 3.95% and a viability, T/C [37] of 61.6%. It also gave a viability, T/C [38] of 49.8%, a viability, T/C [19] of 23.7% and a viability, T/C [20] of 18.1%. The viability, T/C [21] was 10.1%, the viability, T/C [22] was 3.58% and the viability, T/C [39] was 68.6%. The viability, T/C [40] was 36.7%, the viability, T/C [25] was 18.2% and the viability, T/C [26] was 15.1%. The viability, T/C [27] was 9.7% and the viability, T/C [28] was 3.29%.

For `Cn1ncnc1[C@H]1c2n[nH]c(=O)c3cc(F)cc(c23)N[C@@H]1c1ccc(F)cc1` + CC1OCC2(CCN(c3cnc(Sc4ccnc(N)c4Cl)c(N)n3)CC2)C1N, the IC50 (second compound 0.1 µM) was greater than 100 nM, the IC50 (second compound 0.316 µM) was greater than 100 nM and the IC50 (second compound 1 µM) was greater than 100 nM. The IC50 (second compound 3.16 µM) was greater than 100 nM, the IC50 (second compound 10 µM) was greater than 100 nM and the viability, T/C (second compound 0.1 µM, first compound 0.000316 µM) was 105%. For the same compound, the viability, T/C (second compound 0.1 µM, first compound 0.001 µM) was 102%, the viability, T/C [31] was 95.9% and the viability, T/C [32] was 95.7%. It also gave a viability, T/C [1] of 88.6%, a viability, T/C [2] of 85.8% and a viability, T/C (second compound 0.316 µM, first compound 0.000316 µM) of 93.5%. For the same compound, the viability, T/C (second compound 0.316 µM, first compound 0.001 µM) was 97.2%, the viability, T/C [33] was 95.6% and the viability, T/C [34] was 87.5%. The viability, T/C [7] was 83.3%, the viability, T/C [8] was 73.9% and the viability, T/C (second compound 1 µM, first compound 0.000316 µM) was 95.8%. The viability, T/C (second compound 1 µM, first compound 0.001 µM) was 93%, the viability, T/C [35] was 92.2% and the viability, T/C [36] was 83.8%. For the same compound, the viability, T/C [13] was 82.6%, the viability, T/C [14] was 76% and the viability, T/C (second compound 3.16 µM, first compound 0.000316 µM) was 90.3%. It also gave a viability, T/C (second compound 3.16 µM, first compound 0.001 µM) of 83.1%, a viability, T/C [37] of 83.3% and a viability, T/C [38] of 79.8%. For the same compound, the viability, T/C [19] was 73.7%, the viability, T/C [20] was 74.2% and the viability, T/C (second compound 10 µM, first compound 0.000316 µM) was 78.9%. For the same compound, the viability, T/C (second compound 10 µM, first compound 0.001 µM) was 74.4%, the viability, T/C [39] was 76.7% and the viability, T/C [40] was 66.7%. The viability, T/C [25] was 62.8% and the viability, T/C [26] was 61.9%.

Source: PubChem BioAssay AID1963866 (Molecular Pharmacology Branch, DTP, NCI, 2024)
